Results: paper PMC7525662, “Preclinical dosimetry models and the prediction of clinical doses of novel positron emission tomography radiotracers” (Scientific Reports, 2020)
Marks after values point to notes of the source that are not given here.

Experiments:
Set-up in all cases: species or system Sprague–Dawley rats
Conditions in all cases: rat, in vivo
[1] = Residence times normalised to human organ masses, FBP reconstruction
Method: PET studies were reconstructed using filtered-back projection (FBP) and Mediso’s iterative Tera-Tomo 3D reconstruction algorithm with the following settings: 4 iterations, 6 subsets, full detector model, normal regularization, spike filter on, voxel size 0.4 mm and 400‒600 keV energy window. PET data were corrected for randoms, scatter and attenuation. Time-activity curves for each source organ, whole-body and remainder of the body were plotted. […] Residence times (τ) were determined for each radiotracer in source organs, whole-body and remaining (any activity assigned to the whole-body but not assigned to a source organ). Each preclinical source organ’s τ was determined by calculating the area under its respective time-activity curve (activity normalised to the percentage maximum injected dose as a function of time) using the trapezoid method. […] From each individual animal, eight dosimetry models were constructed from all possible combinations of image reconstruction method (FBP or iterative), τ (non-normalised or normalised to human organ masses), and sex of phantom (male or female). Supplementary table 1. Scaling (normalisation) factors applied to residence times of PET radiotracers in male Sprague-Dawley rats to predict human adult residence times. […] Stabin et al. 2006 ^4); WB: Whole Body.

[2] = OLINDA/EXM predicted clinical doses: adult male phantom, non-normalised τ, FBP
Method: (§1) PET studies were reconstructed using filtered-back projection (FBP) and Mediso’s iterative Tera-Tomo 3D reconstruction algorithm with the following settings: 4 iterations, 6 subsets, full detector model, normal regularization, spike filter on, voxel size 0.4 mm and 400‒600 keV energy window. PET data were corrected for randoms, scatter and attenuation. Time-activity curves for each source organ, whole-body and remainder of the body were plotted. […] Residence times (τ) were determined for each radiotracer in source organs, whole-body and remaining (any activity assigned to the whole-body but not assigned to a source organ). Each preclinical source organ’s τ was determined by calculating the area under its respective time-activity curve (activity normalised to the percentage maximum injected dose as a function of time) using the trapezoid method. […] From each individual animal, eight dosimetry models were constructed from all possible combinations of image reconstruction method (FBP or iterative), τ (non-normalised or normalised to human organ masses), and sex of phantom (male or female).

[3] = OLINDA/EXM predicted clinical doses: adult female phantom, non-normalised τ, FBP
Method: as §1, with “female). Supplementary table 6. Predicted clinical absorbed organ doses and whole-body effective doses of PET radiotracers using non-normalised (preclinical) adult female source organ residence times from filtered backprojection reconstructions.” for “female).”

[4] = OLINDA/EXM predicted clinical doses: adult male phantom, normalised τ, FBP
Method: as §1

Substance: NOTA-RGDfK [existing Al^18F-labelled NOTA-RGDfK peptide PET radiotracer; precursor NOTA-RGDfK (1)]
- Normalised Residence Time (h), Average: Remaining [1]: 1.98 h
- Effective Dose (mSv/MBq), Average [2]: 5.11E-02 mSv/MBq
- Estimated Absorbed Dose of Organ, Average: Adrenals [2]: 1.14E-02 mGy/MBq
- Estimated Absorbed Dose of Organ, Average: Brain [2]: 2.47E-03 mGy/MBq
- Estimated Absorbed Dose of Organ, Average: Breasts [2]: 7.90E-03 mGy/MBq
- Estimated Absorbed Dose of Organ, Average: Gallbladder Wall [2]: 1.24E-02 mGy/MBq
- Estimated Absorbed Dose of Organ, Average: Heart Wall [2]: 7.37E-03 mGy/MBq
- Estimated Absorbed Dose of Organ, Average: Kidneys [2]: 2.41E-02§ mGy/MBq
- Estimated Absorbed Dose of Organ, Average: LLI Wall [2]: 1.46E-01 ‡ mGy/MBq
- Estimated Absorbed Dose of Organ, Average: Liver [2]: 7.25E-03 mGy/MBq
- Estimated Absorbed Dose of Organ, Average: Lungs [2]: 6.07E-03 mGy/MBq
- Estimated Absorbed Dose of Organ, Average: Muscle [2]: 1.31E-02 mGy/MBq
- Estimated Absorbed Dose of Organ, Average: Osteogenic Cells [2]: 1.64E-02 mGy/MBq
- Estimated Absorbed Dose of Organ, Average: Pancreas [2]: 1.22E-02 mGy/MBq
- Estimated Absorbed Dose of Organ, Average: Red Marrow [2]: 1.21E-02 mGy/MBq
- Estimated Absorbed Dose of Organ, Average: Skin [2]: 8.75E-03 mGy/MBq
- Estimated Absorbed Dose of Organ, Average: Small Intestine [2]: 1.97E-02 mGy/MBq
- Estimated Absorbed Dose of Organ, Average: Spleen [2]: 1.15E-02 mGy/MBq
- Estimated Absorbed Dose of Organ, Average: Stomach Wall [2]: 1.21E-02 mGy/MBq
- Estimated Absorbed Dose of Organ, Average: Testes [2]: 1.85E-02 mGy/MBq
- Estimated Absorbed Dose of Organ, Average: Thymus [2]: 9.71E-03 mGy/MBq
- Estimated Absorbed Dose of Organ, Average: Thyroid [2]: 9.77E-03 mGy/MBq
- Estimated Absorbed Dose of Organ, Average: Total Body [2]: 1.30E-02 mGy/MBq
- Estimated Absorbed Dose of Organ, Average: ULI Wall [2]: 1.65E-02 mGy/MBq
- Estimated Absorbed Dose of Organ, Average: Urinary Bladder Wall [2]: 4.35E-01 † mGy/MBq
- Effective Dose (mSv/MBq), Average ± SD [3]: 6.49E-02 mSv/MBq
- Estimated Absorbed Dose of Organ, Average: Adrenals [3]: 1.46E-02 mGy/MBq
- Estimated Absorbed Dose of Organ, Average: Brain [3]: 3.20E-03 mGy/MBq
- Estimated Absorbed Dose of Organ, Average: Breasts [3]: 1.01E-02 mGy/MBq
- Estimated Absorbed Dose of Organ, Average: Gallbladder Wall [3]: 1.49E-02 mGy/MBq
- Estimated Absorbed Dose of Organ, Average: Heart Wall [3]: 9.41E-03 mGy/MBq
- Estimated Absorbed Dose of Organ, Average: Kidneys [3]: 2.70E-02 § mGy/MBq
- Estimated Absorbed Dose of Organ, Average: LLI Wall [3]: 1.62E-01 ‡ mGy/MBq
- Estimated Absorbed Dose of Organ, Average: Liver [3]: 9.39E-03 mGy/MBq
- Estimated Absorbed Dose of Organ, Average: Lungs [3]: 7.79E-03 mGy/MBq
- Estimated Absorbed Dose of Organ, Average: Muscle [3]: 1.61E-02 mGy/MBq
- Estimated Absorbed Dose of Organ, Average: Osteogenic Cells [3]: 2.13E-02 mGy/MBq
- Estimated Absorbed Dose of Organ, Average: Ovaries [3]: 3.85E-02 mGy/MBq
- Estimated Absorbed Dose of Organ, Average: Pancreas [3]: 1.53E-02 mGy/MBq
- Estimated Absorbed Dose of Organ, Average: Red Marrow [3]: 1.52E-02 mGy/MBq
- Estimated Absorbed Dose of Organ, Average: Skin [3]: 1.08E-02 mGy/MBq
- Estimated Absorbed Dose of Organ, Average: Small Intestine [3]: 2.41E-02 mGy/MBq
- Estimated Absorbed Dose of Organ, Average: Spleen [3]: 1.45E-02 mGy/MBq
- Estimated Absorbed Dose of Organ, Average: Stomach Wall [3]: 1.50E-02 mGy/MBq
- Estimated Absorbed Dose of Organ, Average: Thymus [3]: 1.25E-02 mGy/MBq
- Estimated Absorbed Dose of Organ, Average: Thyroid [3]: 1.15E-02 mGy/MBq
- Estimated Absorbed Dose of Organ, Average: Total Body [3]: 1.63E-02 mGy/MBq
- Estimated Absorbed Dose of Organ, Average: ULI Wall [3]: 2.11E-02 mGy/MBq
- Estimated Absorbed Dose of Organ, Average: Urinary Bladder Wall [3]: 6.07E-01 † mGy/MBq
- Estimated Absorbed Dose of Organ, Average: Uterus [3]: 4.81E-02 mGy/MBq
- Effective Dose (mSv/MBq), Average ± SD [4]: 2.18E-02 mSv/MBq
- Estimated Absorbed Dose of Organ, Average: Adrenals [4]: 1.10E-02 mGy/MBq
- Estimated Absorbed Dose of Organ, Average: Brain [4]: 3.17E-03 mGy/MBq
- Estimated Absorbed Dose of Organ, Average: Breasts [4]: 8.04E-03 mGy/MBq
- Estimated Absorbed Dose of Organ, Average: Gallbladder Wall [4]: 1.15E-02 mGy/MBq
- Estimated Absorbed Dose of Organ, Average: Heart Wall [4]: 1.15E-02 mGy/MBq
- Estimated Absorbed Dose of Organ, Average: Kidneys [4]: 1.64E-02 § mGy/MBq
- Estimated Absorbed Dose of Organ, Average: LLI Wall [4]: 5.79E-02 ‡ mGy/MBq
- Estimated Absorbed Dose of Organ, Average: Liver [4]: 6.81E-03 mGy/MBq
- Estimated Absorbed Dose of Organ, Average: Lungs [4]: 8.79E-03 mGy/MBq
- Estimated Absorbed Dose of Organ, Average: Muscle [4]: 1.05E-02 mGy/MBq
- Estimated Absorbed Dose of Organ, Average: Osteogenic Cells [4]: 1.53E-02 mGy/MBq
- Estimated Absorbed Dose of Organ, Average: Pancreas [4]: 1.17E-02 mGy/MBq
- Estimated Absorbed Dose of Organ, Average: Red Marrow [4]: 9.94E-03 mGy/MBq
- Estimated Absorbed Dose of Organ, Average: Skin [4]: 7.88E-03 mGy/MBq
- Estimated Absorbed Dose of Organ, Average: Small Intestine [4]: 1.40E-02 mGy/MBq
- Estimated Absorbed Dose of Organ, Average: Spleen [4]: 1.09E-02 mGy/MBq
- Estimated Absorbed Dose of Organ, Average: Stomach Wall [4]: 1.13E-02 mGy/MBq
- Estimated Absorbed Dose of Organ, Average: Testes [4]: 1.18E-02 mGy/MBq
- Estimated Absorbed Dose of Organ, Average: Thymus [4]: 9.99E-03 mGy/MBq
- Estimated Absorbed Dose of Organ, Average: Thyroid [4]: 9.88E-03 mGy/MBq
- Estimated Absorbed Dose of Organ, Average: Total Body [4]: 1.05E-02 mGy/MBq
- Estimated Absorbed Dose of Organ, Average: ULI Wall [4]: 1.28E-02 mGy/MBq
- Estimated Absorbed Dose of Organ, Average: Urinary Bladder Wall [4]: 1.16E-01 † mGy/MBq
